Measurements taken from patent EP4806891A1 (Kangbaida (Sichuan) Biotechnology Co., Ltd., priority 2023, dated 2025).

target: T1, HEK-Blue-hTLR9 cells (Homo sapiens, UniProt Q9NR96); experiment: HEK-Blue-hTLR9 cell inhibition assay; format: cell-based; details: ODN2006 1 µM, 16 h, OD 620 nm, read-out: TLR9 IC50
T1 construct: expressed in transfected cells; host or cells: HEK-Blue-hTLR9 cells (HEK293-derived reporter line)
T1 sequence (Q9NR96 26-1032): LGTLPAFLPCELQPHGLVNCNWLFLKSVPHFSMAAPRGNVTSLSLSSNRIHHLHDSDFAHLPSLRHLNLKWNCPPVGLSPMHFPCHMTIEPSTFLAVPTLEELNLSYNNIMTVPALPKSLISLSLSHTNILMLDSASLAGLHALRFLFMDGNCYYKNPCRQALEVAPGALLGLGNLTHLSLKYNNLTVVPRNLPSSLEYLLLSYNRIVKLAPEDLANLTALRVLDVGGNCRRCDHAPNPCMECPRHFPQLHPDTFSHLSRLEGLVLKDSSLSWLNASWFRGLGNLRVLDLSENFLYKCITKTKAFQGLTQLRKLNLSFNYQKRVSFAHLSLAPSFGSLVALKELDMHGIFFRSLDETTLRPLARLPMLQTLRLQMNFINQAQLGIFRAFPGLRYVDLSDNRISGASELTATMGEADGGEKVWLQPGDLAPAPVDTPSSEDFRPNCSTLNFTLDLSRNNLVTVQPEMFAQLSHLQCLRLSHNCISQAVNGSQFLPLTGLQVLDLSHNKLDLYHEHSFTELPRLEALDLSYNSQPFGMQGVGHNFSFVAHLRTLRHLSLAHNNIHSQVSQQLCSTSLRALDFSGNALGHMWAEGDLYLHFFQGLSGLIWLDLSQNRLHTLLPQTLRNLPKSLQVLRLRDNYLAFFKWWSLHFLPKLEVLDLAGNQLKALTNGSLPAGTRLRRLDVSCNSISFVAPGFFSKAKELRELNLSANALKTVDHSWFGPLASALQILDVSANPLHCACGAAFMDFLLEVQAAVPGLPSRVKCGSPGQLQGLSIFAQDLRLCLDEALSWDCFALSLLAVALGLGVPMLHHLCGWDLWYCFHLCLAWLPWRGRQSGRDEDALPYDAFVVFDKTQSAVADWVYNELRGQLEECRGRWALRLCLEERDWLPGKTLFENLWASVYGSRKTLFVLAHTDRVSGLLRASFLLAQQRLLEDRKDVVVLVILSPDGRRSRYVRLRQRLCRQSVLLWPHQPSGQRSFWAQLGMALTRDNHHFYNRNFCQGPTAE
Procedure: HEK-Blue-hTLR7/8/9 cell inhibition assay
1. HEK-Blue-hTLR7/8 cells (1 × 10^4 cells/well) and HEK-Blue-hTLR9 cells (1.5 × 10^4 cells/well) were seeded in a 384-well cell culture plate, with a volume of 30 µL per well. The plate was incubated at 37°C in a 5% CO2 incubator for 4 h. 2. The compound was prepared with DMSO and diluted in DMEM medium to 10 concentrations (1:3 dilution), with final concentrations of 10000, 3333.3, 1111.1, 370.4, 123.5, 41.2, 13.7, 4.6, 1.5, and 0.5 nM; R848 was prepared with DMSO and diluted in DMEM medium, with final concentrations of 0.8 µM (HEK-Blue-hTLR7) and 3 µM (HEK-Blue-hTLR8); ODN2006 was prepared with endotoxin-free water and diluted in DMEM medium, with a final concentration of 1 µM. 3. Cells treated with DMSO were used as the blank control group, while cells treated solely with Resiquimod (R848) were used as the positive control group for HEK-Blue-hTLR7/8, and cells treated solely with ODN2006 were used as the positive control group for HEK-Blue-hTLR9. Cells treated with the test compound together with R848 or ODN2006 were used as the test group. Two parallel wells were set for each group and were placed at 37°C in a 5% CO2 incubator for incubation. 4. After being incubated for 4 h, the 384-well plate of HEK-Blue-hTLR7/8 was taken out from the incubator, and R848 alone or both R848 and the diluted compound were separately added into each well. The plate was placed at 37°C in a 5% CO2 incubator for incubation for 16 h; the 384-well plate of HEK-Blue-hTLR9 was taken out from the incubator, and ODN2006 alone or both ODN2006 and the diluted compound were added separately to each well. The plate was incubated at 37°C in a 5% CO2 incubator for 16 h. 5. After being incubated for 16 h, the 384-well plate was removed from the incubator and centrifuged at 1000 rpm for 1 minute. The optical density value of each well at 620 nm was measured using a multifunctional microplate reader. 6. The cell inhibition rate was calculated as (1-(OD620 test group-OD620 blank group)/(OD620 positive group-OD620 blank group))×100%, and the half maximal inhibitory concentration (IC50) was calculated through curve fitting. Table 1: Activity of the compounds of the present disclosure in HEK-Blue-hTLR7/8/9 cellular assays

For CN1CCC(c2nnc([C@]34CN(c5ccc(C#N)c6ncccc56)C[C@@]3(C(F)(F)F)C4)[nH]2)CC1 [Compound 9, 5-((1S,5R)-1-(5-(1-methylpiperidin-4-yl)-4H-1,2,4-triazol-3-yl)-5-(trifluoromethyl)-3-azabicyclo[3.1.0]hexan-3-yl)quinoline-8-carbonitrile], which IC50 is on record?
The IC50 was greater than 1000 nM.

With CN1CCC(Oc2nnc([C@]34CN(c5ccc(OC(F)(F)F)c6ncccc56)C[C@@]3(C(F)(F)F)C4)o2)CC1 [Compound 93, 2-((1-methylpiperidin-4-yl)oxy)-5-((1S,5R)-5-(trifluoromethyl)-3-(8-(trifluoromethoxy)quinolin-5-yl)-3-azabicyclo[3.1.0]hexan-1-yl)-1,3,4-oxadiazole] as the compound, how does the IC50 read?
The IC50 was greater than 10000 nM.

How did the IC50 turn out when CN1CCC(Cc2nnc([C@]34CN(c5ccc(C#N)c6ncccc56)C[C@@]3(C(F)(F)F)C4)o2)CC1 [Compound 37, 5-((1S,5R)-1-(5-((1-methylpiperidin-4-yl)methyl)-1,3,4-oxadiazol-2-yl)-5-(trifluoromethyl)-3-azabicyclo[3.1.0]hexan-3-yl)quinoline-8-carbonitrile] was run?
The IC50 was greater than 1000 nM.

For N#Cc1ccc(N2C[C@]3(c4nnc(N)o4)C[C@]3(C(F)(F)F)C2)c2cccnc12 [Compound 7, 5-((1S,5R)-1-(5-amino-1,3,4-oxadiazol-2-yl)-5-(trifluoromethyl)-3-azabicyclo[3.1.0]hexan-3-yl)quinoline-8-carbonitrile], which IC50 is on record?
Its IC50 is greater than 10000 nM.

Which IC50 does the source give for CN1CCC(c2nnc([C@]34CN(c5ccc(C#N)c6ncccc56)C[C@@]3(C(F)(F)F)C4)o2)CC1=O (stereo partly shown) [Compound 34] here?
The IC50 was greater than 10000 nM.

For CN1CCC(c2nnc([C@]34CN(c5ccc(C#N)c6ncnn56)C[C@@]3(C(F)(F)F)C4)o2)CC1 [Compound 91, 5-((1S,5R)-1-(5-(1-methylpiperidin-4-yl)-1,3,4-oxadiazol-2-yl)-5-(trifluoromethyl)-3-azabicyclo[3.1.0]hexan-3-yl)-[1,2,4]triazolo[1,5-a]pyridine-8-carbonitrile], which IC50 is on record?
Its IC50 is greater than 10000 nM.

With CN1CCC(c2nnc([C@]34CN(c5ccc(C#N)n6nccc56)C[C@@]3(C(F)(F)F)C4)o2)CC1 [Compound 59, 4-((1S,5R)-1-(5-(1-methylpiperidin-4-yl)-1,3,4-oxadiazol-2-yl)-5-(trifluoromethyl)-3-azabicyclo[3.1.0]hexan-3-yl)pyrazolo[1,5-a]pyridine-7-carbonitrile] as the compound, how does the IC50 read?
The IC50 was greater than 1000 nM.

N#Cc1ccc(N2C[C@]3(c4nnc(C56CCC(N)(CC5)CC6)o4)C[C@]3(C(F)(F)F)C2)c2cccnc12 [Compound 52, 5-((1S,5R)-1-(5-(4-aminobicyclo[2.2.2]octan-1-yl)-1,3,4-oxadiazol-2-yl)-5-(trifluoromethyl)-3-azabicyclo[3.1.0]hexan-3-yl)quinoline-8-carbonitrile] was tested. Which IC50 did it give?
Its IC50 is less than 1000 nM.

N#Cc1ccc(N2C[C@]3(c4nnc(C56CCC(NC(=O)[C@@H]7COCCN7)(CC5)CC6)o4)C[C@]3(C(F)(F)F)C2)c2cccnc12 [Compound 54, (S)-N-(4-(5-((1S,5R)-3-(8-cyanoquinolin-5-yl)-5-(trifluoromethyl)-3-azabicyclo[3.1.0]hexan-1-yl)-1,3,4-oxadiazol-2-yl)bicyclo[2.2.2]octan-1-yl)morpholine-3-carboxamide] was tested. Which IC50 did it give?
Its IC50 is greater than 1000 nM.

For CN1CC2(CC(c3nnc([C@]45CN(c6ccc(C#N)c7ncccc67)C[C@@]4(C(F)(F)F)C5)o3)C2)C1 [Compound 19, 5-((1S,5R)-1-(5-(2-methyl-2-azaspiro[3.3]heptan-6-yl)-1,3,4-oxadiazol-2-yl)-5-(trifluoromethyl)-3-azabicyclo[3.1.0]hexan-3-yl)quinoline-8-carbonitrile], which IC50 is on record?
The IC50 was greater than 1000 nM.

N#Cc1ccc(N2C[C@]3(c4nnc(CN5CCOCC5)o4)C[C@]3(C(F)(F)F)C2)c2cccnc12 [Compound 40, 5-((1S,5R)-1-(5-(morpholinomethyl)-1,3,4-oxadiazol-2-yl)-5-(trifluoromethyl)-3-azabicyclo[3.1.0]hexan-3-yl)quinoline-8-carbonitrile] was tested. Which IC50 did it give?
The IC50 was greater than 10000 nM.

N#Cc1ccc(N2C[C@]3(c4nnc(N5CCOCC5)o4)C[C@]3(C(F)(F)F)C2)c2cccnc12 [Compound 27, 5-((1S,5R)-1-(5-morpholino-1,3,4-oxadiazol-2-yl)-5-(trifluoromethyl)-3-azabicyclo[3.1.0]hexan-3-yl)quinoline-8-carbonitrile] was tested. Which IC50 did it give?
The IC50 was greater than 10000 nM.

CN1CCC(n2cnc([C@]34CN(c5ccc(C#N)c6ncccc56)C[C@@]3(C(F)(F)F)C4)n2)CC1 [Compound 23, 5-((1S,5R)-1-(1-(1-methylpiperidin-4-yl)-1H-1,2,4-triazol-3-yl)-5-(trifluoromethyl)-3-azabicyclo[3.1.0]hexan-3-yl)quinoline-8-carbonitrile] was tested. Which IC50 did it give?
Its IC50 is greater than 1000 nM.

Which IC50 does the source give for CN1CCC(c2nnc([C@]34CN(c5ccc(C(F)(F)F)n6nccc56)C[C@@]3(C(F)(F)F)C4)o2)CC1 [Compound 87, 2-(1-methylpiperidin-4-yl)-5-((1S,5R)-5-(trifluoromethyl)-3-(7-(trifluoromethyl)pyrazolo[1,5-a]pyridin-4-yl)-3-azabicyclo[3.1.0]hexan-1-yl)-1,3,4-oxadiazole] here?
Its IC50 is greater than 1000 nM.

For CN1CC(Cc2nnc([C@]34CN(c5ccc(C#N)c6ncccc56)C[C@@]3(C(F)(F)F)C4)o2)C1 [Compound 36, 5-((1S,5R)-1-(5-((1-methylazetidin-3-yl)methyl)-1,3,4-oxadiazol-2-yl)-5-(trifluoromethyl)-3-azabicyclo[3.1.0]hexan-3-yl)quinoline-8-carbonitrile], which IC50 is on record?
Its IC50 is greater than 1000 nM.

For FC(F)(F)Oc1ccc(N2C[C@]3(c4nnc(C5(F)CCNCC5)o4)C[C@]3(C(F)(F)F)C2)c2cccnc12 [Compound 96, 2-(4-fluoropiperidin-4-yl)-5-((1S,5R)-3-(8-(trifluoromethoxy)quinolin-5-yl)-5-(trifluoromethyl)-3-azabicyclo[3.1.0]hexan-1-yl)-1,3,4-oxadiazole], which IC50 is on record?
Its IC50 is greater than 1000 nM.

N#Cc1ccc(N2C[C@]3(c4nnc(C5(F)CCNCC5)o4)C[C@]3(C(F)(F)F)C2)c2cccnc12 [Compound 60, 5-((1S,5R)-1-(5-(4-fluoropiperidin-4-yl)-1,3,4-oxadiazol-2-yl)-5-(trifluoromethyl)-3-azabicyclo[3.1.0]hexan-3-yl)quinoline-8-carbonitrile] was tested. Which IC50 did it give?
Its IC50 is less than 1000 nM.

With CN1CCC(O)(c2nnc([C@]34CN(c5ccc(C(F)(F)F)c6ncccc56)C[C@@]3(C(F)(F)F)C4)o2)CC1 [Compound 94, 1-methyl-4-(5-((1S,5R)-5-(trifluoromethyl)-3-(8-(trifluoromethyl)quinolin-5-yl)-3-azabicyclo[3.1.0]hexan-1-yl)-1,3,4-oxadiazol-2-yl)piperidin-4-ol] as the compound, how does the IC50 read?
The IC50 was greater than 1000 nM.

How did the IC50 turn out when CN1CC2CC1CC2c1nnc([C@]23CN(c4ccc(C#N)c5ncccc45)C[C@@]2(C(F)(F)F)C3)o1 (stereo partly drawn) [Compound 14, 5-((1S,5R)-1-(5-(2-methyl-2-azabicyclo[2.2.1]heptan-5-yl)-1,3,4-oxadiazol-2-yl)-5-(trifluoromethyl)-3-azabicyclo[3.1.0]hexan-3-yl)quinoline-8-carbonitrile] was run?
Its IC50 is greater than 1000 nM.
